Data set [1] deals with mice. Briefly: Mouse rotarod assay. The following applies: rod at 6 rpm. (Falling from the rotarod earlier than controls is read as motor impairment.)
Description: In mice, the rotarod procedure (Dunham and Miya, J. Am. Pharmacol. Assoc. 46:208-209 (1957)) is used to disclose minimal muscular or neurological impairment (MMI). When a mouse is placed on a rod that rotates at a speed of 6 rpm, the animal can maintain its equilibrium for long periods of time. The animal is considered toxic if it falls off this rotating rod three times during a 1-min period.
Data set [2] relates to male CF1 mice. Briefly: 6 Hz psychomotor seizure model of partial epilepsy. As to conditions: 6 Hz 32 mA corneal stimulus. Set-up: concentration or dose not given beside the values. Format: in vivo. The source says: Compounds can also be evaluated for the protection against seizures induced by a 6 Hz, 0.2 ms rectangular pulse width of 3 s duration, at a stimulus intensity of 32 mA (CC97) applied to the cornea of male CF1 mice (20-30 g) according to procedures described by Barton et al, “Pharmacological Characterization of the 6 Hz Psychomotor Seizure Model of Partial Epilepsy,” Epilepsy Res. 47(3):217-27 (2001). Seizures are characterised by the expression of one or more of the following behaviours: stun, forelimb clonus, twitching of the vibrissae and Straub-tail immediately following electrical stimulation.

Data set [3] has as its target T-type calcium channel (Homo sapiens, UniProt O95180). Nature of the data set: T-type channel blocking, FLIPR data (Table 6). Format: cell-based. The following applies: for CAv3.2 IC50 Ratio closed/inact.: CAv3.2, ratio closed/inact. The source says:
(§1) Another method, high-throughput spectrophotometric assay, utilizes loading of the cell lines with a fluorescent dye sensitive to intracellular calcium concentration and subsequent examination of the effects of compounds on the ability of depolarization by potassium chloride or other means to alter intracellular calcium levels.

The target in data set [4] is T-type calcium channel (Homo sapiens, UniProt O43497). Nature of the data set: T-type channel blocking, FLIPR data (Table 6). The following applies: CAv3.1. Format: cell-based.
Description: as §1

Data set [5] addresses Human Cav 2.2 channels (Homo sapiens, UniProt Q00975). Briefly: Fluorescent assay for CaV2.2 channels using potassium depolarization (VIPR/FLIPR). Format: cell-based. The following applies: FLIPR data. An outline of the steps:
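HEK293 cells stably expressing human Cav2.2 with α2δ and β subunits plus Kir2.3 were loaded with fluo-4 and incubated 30 min at 25 °C with compound in 4, 12, 25 or 30 mM potassium buffer. Channels were opened with 70 mM potassium (final) and calcium influx was read by fluorescence (Ex 480/Em 535 nm).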

Data set [6] has as its target CAv1.2 (Homo sapiens, UniProt Q13936). Briefly: L-type (CAv1.2) channel blocking, FLIPR data (Table 6). Format: cell-based.
Where [7] appears, read: CAv3.2, closed state, read-out: CAv3.2 IC50 Closed.
Where [8] appears, read: CAv3.2, inactivated state, read-out: CAv3.2 IC50 Inact.
Setting [9] is: closed state, read-out: CAv2.2 IC50 Closed.
Where [10] appears, read: inactivated state, read-out: CAv2.2 IC50 Inact.
Where [11] appears, read: closed state, read-out: CAv1.2 IC50 Closed.
Where [12] appears, read: inactivated state, read-out: CAv1.2 IC50 Inact.

Structures are written as SMILES. Read-outs that look alike come from different tables or passages of the source. Bounds are passed on as bounds.

Here are results for 12 compounds from patent US20120245137A1 (Zalicus Pharmaceuticals Ltd., priority 2009, published 2012).

Sequence of CAv1.2 (Q13936 whole entry): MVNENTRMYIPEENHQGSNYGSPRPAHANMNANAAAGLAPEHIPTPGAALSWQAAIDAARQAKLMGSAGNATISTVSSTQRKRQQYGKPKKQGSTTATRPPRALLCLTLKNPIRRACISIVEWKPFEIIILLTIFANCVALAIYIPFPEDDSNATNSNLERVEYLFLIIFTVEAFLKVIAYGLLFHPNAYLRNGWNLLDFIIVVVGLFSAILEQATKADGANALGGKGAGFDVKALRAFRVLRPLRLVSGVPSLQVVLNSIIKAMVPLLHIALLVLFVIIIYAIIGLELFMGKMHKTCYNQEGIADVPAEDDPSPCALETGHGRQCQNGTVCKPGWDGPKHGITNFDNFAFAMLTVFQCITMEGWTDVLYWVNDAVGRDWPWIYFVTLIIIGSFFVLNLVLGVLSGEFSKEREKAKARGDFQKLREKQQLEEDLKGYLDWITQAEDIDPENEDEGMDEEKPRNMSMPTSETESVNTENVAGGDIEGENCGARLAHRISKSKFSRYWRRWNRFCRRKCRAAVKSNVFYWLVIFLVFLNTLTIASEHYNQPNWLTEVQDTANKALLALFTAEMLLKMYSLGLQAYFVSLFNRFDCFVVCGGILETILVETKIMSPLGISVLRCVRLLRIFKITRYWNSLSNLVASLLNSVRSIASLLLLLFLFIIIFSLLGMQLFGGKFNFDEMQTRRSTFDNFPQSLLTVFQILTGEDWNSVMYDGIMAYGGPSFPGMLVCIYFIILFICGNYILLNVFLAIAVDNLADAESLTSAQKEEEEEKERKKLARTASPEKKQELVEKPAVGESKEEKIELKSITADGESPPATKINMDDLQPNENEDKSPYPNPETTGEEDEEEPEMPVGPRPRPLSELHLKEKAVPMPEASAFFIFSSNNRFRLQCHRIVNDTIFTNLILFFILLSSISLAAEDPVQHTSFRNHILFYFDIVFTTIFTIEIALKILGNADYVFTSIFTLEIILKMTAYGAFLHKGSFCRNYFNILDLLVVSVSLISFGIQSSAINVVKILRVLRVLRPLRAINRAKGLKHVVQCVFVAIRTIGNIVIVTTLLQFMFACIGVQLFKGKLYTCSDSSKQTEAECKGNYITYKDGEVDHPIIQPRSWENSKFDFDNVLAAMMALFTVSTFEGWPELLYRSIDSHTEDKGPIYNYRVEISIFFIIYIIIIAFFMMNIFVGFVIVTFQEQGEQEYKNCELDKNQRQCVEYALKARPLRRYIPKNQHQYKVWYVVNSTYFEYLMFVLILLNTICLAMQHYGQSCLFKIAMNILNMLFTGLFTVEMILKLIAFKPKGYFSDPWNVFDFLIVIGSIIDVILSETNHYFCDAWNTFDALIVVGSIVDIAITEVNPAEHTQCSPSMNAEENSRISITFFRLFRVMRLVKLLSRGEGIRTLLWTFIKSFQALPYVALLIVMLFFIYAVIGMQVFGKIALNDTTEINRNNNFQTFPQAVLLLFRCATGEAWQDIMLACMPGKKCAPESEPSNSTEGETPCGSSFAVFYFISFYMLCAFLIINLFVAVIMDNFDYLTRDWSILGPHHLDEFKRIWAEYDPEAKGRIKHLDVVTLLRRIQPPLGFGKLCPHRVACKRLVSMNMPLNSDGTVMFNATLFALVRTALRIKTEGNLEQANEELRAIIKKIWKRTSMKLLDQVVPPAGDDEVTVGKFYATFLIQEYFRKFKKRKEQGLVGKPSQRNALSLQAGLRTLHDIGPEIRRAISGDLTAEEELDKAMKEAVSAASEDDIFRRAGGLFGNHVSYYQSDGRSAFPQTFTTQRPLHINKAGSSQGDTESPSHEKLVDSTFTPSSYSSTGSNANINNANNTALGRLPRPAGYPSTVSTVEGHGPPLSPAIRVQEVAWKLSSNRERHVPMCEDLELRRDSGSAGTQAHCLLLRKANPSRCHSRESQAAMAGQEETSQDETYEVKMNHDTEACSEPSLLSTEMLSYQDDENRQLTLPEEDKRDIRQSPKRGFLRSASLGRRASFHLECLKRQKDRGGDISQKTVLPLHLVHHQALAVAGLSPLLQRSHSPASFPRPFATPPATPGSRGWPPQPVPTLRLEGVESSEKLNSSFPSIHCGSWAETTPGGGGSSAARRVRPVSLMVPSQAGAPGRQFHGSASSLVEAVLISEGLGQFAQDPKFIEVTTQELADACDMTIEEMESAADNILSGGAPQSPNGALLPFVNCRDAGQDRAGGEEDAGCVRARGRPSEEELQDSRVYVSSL
Sequence of CAv1.2 (P54289 25-1103 partner): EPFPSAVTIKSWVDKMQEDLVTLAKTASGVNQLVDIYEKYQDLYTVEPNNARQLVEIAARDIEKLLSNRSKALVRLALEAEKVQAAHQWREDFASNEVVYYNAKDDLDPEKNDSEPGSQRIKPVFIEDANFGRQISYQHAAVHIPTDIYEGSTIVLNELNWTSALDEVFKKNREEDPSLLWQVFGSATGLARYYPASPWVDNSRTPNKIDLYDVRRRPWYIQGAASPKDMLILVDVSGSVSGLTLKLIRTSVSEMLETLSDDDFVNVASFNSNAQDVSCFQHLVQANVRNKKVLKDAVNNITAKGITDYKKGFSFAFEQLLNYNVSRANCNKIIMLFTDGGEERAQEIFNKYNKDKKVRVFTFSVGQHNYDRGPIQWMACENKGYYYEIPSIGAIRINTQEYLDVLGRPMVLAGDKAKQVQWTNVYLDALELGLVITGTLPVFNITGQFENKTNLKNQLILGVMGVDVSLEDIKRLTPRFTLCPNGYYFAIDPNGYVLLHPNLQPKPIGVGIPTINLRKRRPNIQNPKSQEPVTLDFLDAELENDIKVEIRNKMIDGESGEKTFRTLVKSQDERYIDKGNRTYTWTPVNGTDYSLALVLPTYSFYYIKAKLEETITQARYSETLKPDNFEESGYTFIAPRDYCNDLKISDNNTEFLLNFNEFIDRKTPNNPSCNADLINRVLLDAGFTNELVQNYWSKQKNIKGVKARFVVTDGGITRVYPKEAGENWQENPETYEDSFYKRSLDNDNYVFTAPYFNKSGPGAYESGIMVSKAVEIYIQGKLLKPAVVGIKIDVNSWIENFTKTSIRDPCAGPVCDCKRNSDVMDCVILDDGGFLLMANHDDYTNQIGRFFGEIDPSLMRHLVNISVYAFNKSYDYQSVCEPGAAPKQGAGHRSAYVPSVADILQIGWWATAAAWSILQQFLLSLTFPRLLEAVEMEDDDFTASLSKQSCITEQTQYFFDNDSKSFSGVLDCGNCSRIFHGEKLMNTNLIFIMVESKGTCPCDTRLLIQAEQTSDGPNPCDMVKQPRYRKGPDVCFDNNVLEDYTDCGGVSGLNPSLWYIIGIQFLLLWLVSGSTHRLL
Sequence of CAv1.2 (Q08289 whole entry partner): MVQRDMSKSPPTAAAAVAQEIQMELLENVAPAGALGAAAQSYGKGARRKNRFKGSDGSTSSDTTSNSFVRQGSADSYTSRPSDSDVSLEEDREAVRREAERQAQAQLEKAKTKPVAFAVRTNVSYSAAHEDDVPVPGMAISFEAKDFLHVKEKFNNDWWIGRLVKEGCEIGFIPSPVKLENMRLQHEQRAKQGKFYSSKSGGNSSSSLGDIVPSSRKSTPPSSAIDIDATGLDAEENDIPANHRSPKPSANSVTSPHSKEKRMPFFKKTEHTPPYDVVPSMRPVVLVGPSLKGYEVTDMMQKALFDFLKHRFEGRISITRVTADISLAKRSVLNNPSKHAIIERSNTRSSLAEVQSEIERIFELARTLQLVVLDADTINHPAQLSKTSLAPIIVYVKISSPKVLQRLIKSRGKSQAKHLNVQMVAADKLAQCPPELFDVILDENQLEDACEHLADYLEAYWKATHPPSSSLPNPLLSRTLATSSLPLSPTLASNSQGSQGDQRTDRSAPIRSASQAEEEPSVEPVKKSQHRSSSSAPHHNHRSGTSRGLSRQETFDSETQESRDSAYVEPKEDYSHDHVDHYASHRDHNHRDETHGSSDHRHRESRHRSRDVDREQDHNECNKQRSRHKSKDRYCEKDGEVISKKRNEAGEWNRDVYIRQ

For the compound `O=C(NC1CCC(F)(S(=O)(=O)c2cccc(C(F)(F)F)c2)CC1)[C@@H]1C[C@@H](c2ccccc2)CN1` (stereo partly drawn) [Compound 285, (2S,4S)-N-((1S,4R)-4-fluoro-4-(3-(trifluoromethyl)phenylsulfonyl)cyclohexyl)-4-phenylpyrrolidine-2-carboxamide], in data set [1], the “EPILEPSY ROTAROD (% IMPAIRED) 0.25 hr” value worked out at 100%, the “EPILEPSY ROTAROD (% IMPAIRED) 0.5 hr” value was found to be 100%, the “EPILEPSY ROTAROD (% IMPAIRED) 1 hr” value is listed as 100% and the “EPILEPSY ROTAROD (% IMPAIRED) 2 hr” value is 100%. In addition, in data set [1], the “EPILEPSY ROTAROD (% IMPAIRED) 4 hr” value turned out to be 0%. For the same compound, in data set [2], the “Epilepsy 6 Hz (% protected) 0.25 hr” value was determined as 0%, the “Epilepsy 6 Hz (% protected) 0.5 hr” value stood at 100%, the “Epilepsy 6 Hz (% protected) 1 hr” value was found to be 100% and the “Epilepsy 6 Hz (% protected) 2 hr” value amounted to 100%. The “Epilepsy 6 Hz (% protected) 4 hr” value in data set [2] came to 0%.

For `CC(C)([C@H]1C[C@@H](NC(=O)c2ccc(C(F)(F)F)cc2S(C)(=O)=O)C1)S(=O)(=O)c1cccc(C(F)(F)F)c1` [Compound 542], in data set [1], the “EPILEPSY ROTAROD (% IMPAIRED) 0.25 hr” value was 0%, the “EPILEPSY ROTAROD (% IMPAIRED) 0.5 hr” value is 0%, the “EPILEPSY ROTAROD (% IMPAIRED) 1 hr” value came to 0% and the “EPILEPSY ROTAROD (% IMPAIRED) 2 hr” value is given as 0%. Further, the “EPILEPSY ROTAROD (% IMPAIRED) 4 hr” value in data set [1] is reported as 0%. In data set [2], the “Epilepsy 6 Hz (% protected) 0.25 hr” value is given as 0%, the “Epilepsy 6 Hz (% protected) 0.5 hr” value amounted to 0%, the “Epilepsy 6 Hz (% protected) 1 hr” value was determined as 0% and the “Epilepsy 6 Hz (% protected) 2 hr” value is 0%. Besides, in data set [2], the “Epilepsy 6 Hz (% protected) 4 hr” value is listed as 0%.

Take `CC(C)([C@H]1C[C@@H](NC(=O)c2cc(C(F)(F)F)n[nH]2)C1)S(=O)(=O)c1cccc(C(F)(F)F)c1` [Compound 543]: in data set [1], the “EPILEPSY ROTAROD (% IMPAIRED) 0.25 hr” value was determined as 0%, the “EPILEPSY ROTAROD (% IMPAIRED) 0.5 hr” value worked out at 0%, the “EPILEPSY ROTAROD (% IMPAIRED) 1 hr” value was determined as 0% and the “EPILEPSY ROTAROD (% IMPAIRED) 2 hr” value was determined as 0%. In addition, the “EPILEPSY ROTAROD (% IMPAIRED) 4 hr” value in data set [1] was 0%. Moreover, in data set [2], the “Epilepsy 6 Hz (% protected) 0.25 hr” value came out at 0%, the “Epilepsy 6 Hz (% protected) 0.5 hr” value is on record as 0%, the “Epilepsy 6 Hz (% protected) 1 hr” value is reported as 0% and the “Epilepsy 6 Hz (% protected) 2 hr” value is 0%. Also, the “Epilepsy 6 Hz (% protected) 4 hr” value in data set [2] is 0%.

By IC50 is commonly meant the concentration that inhibits the measured activity by half. `CC(C)([C@H]1C[C@H](C(=O)Nc2ccc(C(F)(F)F)cc2Cl)C1)S(=O)(=O)c1cccc(C(F)(F)F)c1` [Compound 763]: the IC50 in data set [3] (setting [7]) was 7.02 µM; in data set [3] (setting [8]) it was 0.96 µM; in data set [4] it was 6.44 µM; in data set [5] (setting [9]), 2.04 µM; in data set [5] (setting [10]), 0.27 µM; in data set [6] (setting [11]), at least 10 µM. The IC50 in data set [6] (setting [12]) was 2.19 µM. Further, the “CAv3.2 IC50 Ratio closed/inact.” value in data set [3] is on record as 7.3. Also, in data set [5], the “CAv2.2 IC50 Ratio closed/inact.” value turned out to be 7.6. Further, the “CAv1.2 IC50 Ratio closed/inact.” value in data set [6] was determined as 4.6.

For the compound `CC(C)([C@H]1C[C@H](C(=O)NCc2ccc(Oc3ccccc3)cc2)C1)S(=O)(=O)c1cccc(C(F)(F)F)c1` [Compound 764], the IC50 stood at 2.9 µM in data set [3] (setting [7]); 0.43 µM in data set [3] (setting [8]); 0.78 µM in data set [4]; 1.02 µM in data set [5] (setting [9]); 0.11 µM in data set [5] (setting [10]); 3.24 µM in data set [6] (setting [11]). In addition, the IC50 in data set [6] (setting [12]) was found to be 0.83 µM. Moreover, in data set [3], the “CAv3.2 IC50 Ratio closed/inact.” value was found to be 6.7. Besides, in data set [5], the “CAv2.2 IC50 Ratio closed/inact.” value is listed as 9.3. Further, the “CAv1.2 IC50 Ratio closed/inact.” value in data set [6] is given as 3.9.

`CC(C)([C@H]1C[C@H](C(=O)Nc2ccc(C(F)(F)F)cc2)C1)S(=O)(=O)c1cccc(C(F)(F)F)c1` [Compound 765]: the IC50 in data set [3] (setting [7]) worked out at 4.6 µM; in data set [3] (setting [8]) it was 1.5 µM; in data set [4] it was 2.01 µM; in data set [5] (setting [9]), 3.4 µM; in data set [5] (setting [10]), 0.42 µM; in data set [6] (setting [11]), 6.71 µM. Moreover, the IC50 in data set [6] (setting [12]) turned out to be 2.25 µM. Also, in data set [3], the “CAv3.2 IC50 Ratio closed/inact.” value is given as 3.1. Also, the “CAv2.2 IC50 Ratio closed/inact.” value in data set [5] worked out at 8.1. The “CAv1.2 IC50 Ratio closed/inact.” value in data set [6] was found to be 3.

In the case of `CC(C)([C@H]1C[C@H](C(=O)Nc2ccc(C(F)(F)F)cn2)C1)S(=O)(=O)c1cccc(C(F)(F)F)c1` [Compound 766], the IC50 in data set [3] (setting [7]) is 4.2 µM; in data set [3] (setting [8]), 2.38 µM; in data set [4], 2.65 µM; in data set [5] (setting [9]), 1.69 µM; in data set [5] (setting [10]), 0.13 µM; in data set [6] (setting [11]), 3.72 µM. The IC50 in data set [6] (setting [12]) worked out at 2.07 µM. The “CAv3.2 IC50 Ratio closed/inact.” value in data set [3] is listed as 1.8. Moreover, the “CAv2.2 IC50 Ratio closed/inact.” value in data set [5] stood at 13. The “CAv1.2 IC50 Ratio closed/inact.” value in data set [6] is 1.8.

Turning to `CC(C)([C@H]1C[C@H](C(=O)NCc2ccc(C(F)(F)F)nc2)C1)S(=O)(=O)c1cccc(C(F)(F)F)c1` [Compound 767], the IC50 in data set [3] (setting [7]) was at least 10 µM; in data set [3] (setting [8]), 9.57 µM; in data set [4], at least 10 µM; in data set [5] (setting [9]), 5.37 µM; in data set [5] (setting [10]), 0.57 µM; in data set [6] (setting [11]), at least 10 µM. For the same compound, the IC50 in data set [6] (setting [12]) turned out to be 5.14 µM. In data set [3], the “CAv3.2 IC50 Ratio closed/inact.” value came out at 1. In addition, in data set [5], the “CAv2.2 IC50 Ratio closed/inact.” value turned out to be 9.4. In addition, the “CAv1.2 IC50 Ratio closed/inact.” value in data set [6] was found to be 1.9.

Consider `Cc1nc(C(F)(F)F)ccc1NC(=O)[C@H]1C[C@H](C(C)(C)S(=O)(=O)c2cccc(C(F)(F)F)c2)C1` [Compound 768], for which the IC50 was 6.82 µM in data set [3] (setting [7]); 3.56 µM in data set [3] (setting [8]); 4.57 µM in data set [4]; 4.17 µM in data set [5] (setting [9]); 0.39 µM in data set [5] (setting [10]); at least 10 µM in data set [6] (setting [11]). Further, the 50% inhibitory concentration (IC50) in data set [6] (setting [12]) came out at 4.42 µM. Also, the “CAv3.2 IC50 Ratio closed/inact.” value in data set [3] is 1.9. For the same compound, in data set [5], the “CAv2.2 IC50 Ratio closed/inact.” value stood at 10.7. Moreover, the “CAv1.2 IC50 Ratio closed/inact.” value in data set [6] worked out at 2.3.

Consider `Cn1nc(C(F)(F)F)cc1NC(=O)[C@H]1C[C@H](C(C)(C)S(=O)(=O)c2cccc(C(F)(F)F)c2)C1` [Compound 769], for which the IC50 in data set [3] (setting [7]) was found to be 5.36 µM; in data set [3] (setting [8]) it was 3.78 µM; in data set [4], 4.72 µM; in data set [5] (setting [9]) it was 4.98 µM; in data set [5] (setting [10]), 0.34 µM; in data set [6] (setting [11]), 8.49 µM. Further, the IC50 in data set [6] (setting [12]) is 1.47 µM. Besides, the “CAv3.2 IC50 Ratio closed/inact.” value in data set [3] was 1.4. Further, the “CAv2.2 IC50 Ratio closed/inact.” value in data set [5] came to 14.6. In data set [6], the “CAv1.2 IC50 Ratio closed/inact.” value came to 5.8.

Take `O=C(NC[C@H]1C[C@H](S(=O)(=O)c2cccc(Cl)c2)C1)c1ccc(C(F)(F)F)cc1` [Compound 771]: the IC50 is 5.44 µM in data set [3] (setting [7]); 3.04 µM in data set [3] (setting [8]); at least 10 µM in data set [4]; 10 µM in data set [5] (setting [9]); 2.01 µM in data set [5] (setting [10]); at least 10 µM in data set [6] (setting [11]). Further, in data set [6] (setting [12]), the IC50 is at least 10 µM. The “CAv3.2 IC50 Ratio closed/inact.” value in data set [3] came to 1.8. For the same compound, the “CAv2.2 IC50 Ratio closed/inact.” value in data set [5] is recorded as 5.

In the case of `O=C(NC[C@H]1C[C@H](S(=O)(=O)c2cccc(Cl)c2)C1)c1ccc(OCC(F)(F)F)nc1` [Compound 775], the IC50 was 8.66 µM in data set [3] (setting [7]); 1.62 µM in data set [3] (setting [8]); at least 10 µM in data set [4]; 10 µM in data set [5] (setting [9]); 5.78 µM in data set [5] (setting [10]); at least 10 µM in data set [6] (setting [11]). The IC50 in data set [6] (setting [12]) was at least 10 µM. The “CAv3.2 IC50 Ratio closed/inact.” value in data set [3] turned out to be 5.3. Moreover, in data set [5], the “CAv2.2 IC50 Ratio closed/inact.” value is 1.7.
